Consider 1 molecule from US20240120053A1, “5-HT RECEPTOR AGONIST TITRATION” (Diamond Therapeutics Inc., priority 2021, published 2024).

SMILES strings stand for the structures. Entries after “also recorded” stand apart in the source; their conditions may differ. A value given as a limit tells only on which side of the number the result lay.

Series [1] concerns mice. The experiment in a line: Mismatch Negativity (MMN) EEG test, ascending dose protocol. The format is in vivo. Conditions: ascending low, medium, high dose, frontal cortex EEG recording (FIG. 6A, 6B). As for the experimental part:
(§1) Fourteen mice with a history of testing with scopolamine and memantine, containing implanted with a frontal screw for MMN measurement (in mm: AP 1.5; ML 0.5) and an auditory screw for ASSR measurement (in mm: AP −2.8; ML 4.2), are administered an ascending dose of psilocybin. As the mice have been tested with the MMN-ASSR protocol, they are not further habituated prior to psilocybin testing. The ascending dose protocol is summarized below and in FIG. 1: • Week 1: Day 1: Saline, Day 2: Vehicle • Week 2: Day 1:Saline, Day 2: Low Dose • Week 3: Day 1: Saline, Day 2: Medium Dose • Week 4: Day 1: Saline, Day 2: High Dose
Each animal is administered the same compound and dose each day (e.g., saline on day 1, vehicle or compound on day 2). […]
(§2) The ongoing behavior (e.g., speed, total number of grooming bouts, elongation factor, distance traveled, head bobbing, etc.) of each mouse is assessed over each daily recording session (e.g., see FIG. 3). […] The amplitude of the standard and deviant waveforms are also calculated. […] The ASSR is recorded as the average amplitude of both Evoked Power and Phase Locking Factor at each frequency (20 Hz, 30 Hz, 40 Hz, and 8 Hz) for control (saline) and compound (psilocybin). The difference between the control and compound recording for Evoked Power (e.g., see FIG. 4A and FIG. 4B) and Phase Locking Factor (e.g., see FIG. 5A and FIG. 5B) is determined. […]

For series [2], the system named is mice. The experiment in a line: Ongoing spectral power (qEEG, power spectral density) over daily recording sessions. The format is in vivo. Conditions: ascending low, medium, high dose (FIG. 7A-8B). As for the experimental part: as §1
In particular, on Day 1, animals are subcutaneously administered saline at t=−15 minutes prior to recording start. […]
as §2

Series [3] relates to out-bred Long Evans rats. The series can be described thus: Progressive ratio (PR) test of motivation. The format is in vivo. The protocol: (§3) Experiments were conducted to test psilocybin doses in the range of 0.05-0.2 mg/kg psilocybin administered S.C. across progressive ratio (PR) and 5-choice serial reaction time task (5CSRTT) to examine the effect of psilocybin on endophenotypes of motivation and attention. In each study, a population of out-bred Long Evans rats was first tested as a group for response to the PR and 5CSRTT. Each group was then divided into sub-groups by tertiles according to performance, and then exposed to various dose levels immediately prior to re-testing at various psilocybin dose levels.
The PR test is used to answer how willing the test subject is to work for food (i.e. test of motivation). A single 45 mg food pellet (i.e. reinforcer) is made available to the test animal based on lever press response. To obtain each successive pellet, the animal must make increasingly more lever presses. Typically, a progression of 2, 4, 6, 9, 12, 15, 20, 25, 32, 40, 50, 62, 77, 95, 118, etc. is used, derived from the equation:
ratio=[5×e^(0.2×reinforcer#)−5]
At some point, the animal gives up as the motor demands to obtain a single pellet are not deemed worthwhile (i.e. animal reaches“break point” defined as animal's failure to earn a food pellet in 20 minutes).
Rats were then sub-grouped into tertiles based on the number of lever presses for food at baseline, so that within the test population of 36 animals, 12 animals were identified as low responders, characterized by low motivation and potentially corresponding to low motivation endophenotype representative of clinical depression. Twelve animals were identified as high responders. There was a statistically significant difference between the high and low responders. […] This represents a motivational enhancing effect of psilocybin in the cohort corresponding to a low motivation endophenotype representative of clinical depression.

The subject of series [4] is out-bred Long Evans rats. The series can be described thus: 5-choice serial reaction time task (5CSRTT), standard conditions, 5 s ITI. The format is in vivo. The protocol:
as §3
(§4) The 5CSRTT involves evaluating test subject response to a brief visual stimulus (Higgins, Guy & Silenieks, Leonardo. (2017). Rodent Test of Attention and Impulsivity: The 5-Choice Serial Reaction Time Task: The 5-Choice Serial Reaction Time Task. 10.1002/cpph.27). Animals are trained to make a nose-poke response to a stimulus location in order to collect a food reward. The task allows the experimenter to measure animal performance in multiple domains including: • Attention • Impulsivity • Perseveration • Speed of response
(§5) A strength of the test is its flexible configuration to challenge test subjects: • Standard test conditions (0.75s stimulus duration (SD), 5s inter-trial interval (ITI), 100 trials) • Multiple short stimulus duration (mSD) (0.03-1s SD) • Fixed long ITI (5 s vs. 10 s ITI) • Multiple ultrashort ITI (2-5s ITI) • Extended 250 trials
Asterisk (*) indicates statistical significance vs. vehicle. (FIG. 23A).
When this population is segmented into tertiles according to performance based on accuracy (% correct, calculated as #correct/(#correct+#incorrect)*100), the lowest performing tertile (N=8) are considered to be low attentive and potentially representative of a low attentive endophenotype of depression (FIG. 26A). Low attentive rats also score poorly on % hit (FIG. 26B) and have a slower response speed (FIG. 26D). […] Asterisk (*) indicates statistical significance vs. vehicle. […] Using a longer duration between stimulus and reward, the 5CSRTT study measures premature (PREM) and perseverant (PSV) responses. PREM/PSV responses were increased by increasing the ITI from 5s (baseline) to 10s (test condition). […] Both PREM and PSV behaviors are examples of executive cognitive function, likely involving areas of the prefrontal cortex, a brain region rich in 5-HT2A receptors.

Series [5] has as its system out-bred Long Evans rats. The experiment in a line: 5CSRTT with long 10 s ITI, premature (PREM) and perseverative (PSV) responses. The format is in vivo. Conditions: 24 rats, 0.05 mg/kg S.C., p=0.05, t-test.
Excerpt: as §4, §5
When this population is segmented into tertiles according to performance based on accuracy (% correct, calculated as #correct/(#correct+#incorrect)*100), the lowest performing tertile (N=8) are considered to be low attentive and potentially representative of a low attentive endophenotype of depression (FIG. 26A). Low attentive rats also score poorly on % hit (FIG. 26B) and have a slower response speed (FIG. 26D). […] Asterisk (*) indicates statistical significance vs. vehicle. […]

Series [6] can be described thus: Blood plasma levels of psilocin over time in rats dosed with psilocybin. The format is in vivo. The note with it: psilocybin 0.05 mg/kg, after 30 mins.
For series [7] the following is noted: cited from earlier work.
Setting [8] is: 24 rats, standard conditions, 5 s ITI.

Take `CN(C)CCc1c[nH]c2cccc(OP(=O)(O)O)c12` [psilocybin, 4-phosphoryloxy-N,N-dimethyltryptamine]: the “MMN: difference between the standard tone waveform and the deviant tone waveform” value in the series with mice [1] was “larger difference between the standard tone waveform and the deviant form waveform with higher doses”. In addition, the “general brain activity (ongoing spectral power, average PSD)” value in the series on mice [2] is “higher dose corresponds with a decrease in general brain activity”. In addition, the “number of lever presses or break points (rewards earned)” value in the series on out-bred Long Evans rats [3] (entire study population of 36 rats, 0.05, 0.1 and 0.2 mg/kg S.C.) is “None of these doses were observed to cause obvious changes”. The “response in PR test” value in the series on out-bred Long Evans rats [3] (high responder subgroup (12 rats), 0.05-0.2 mg/kg S.C.) was “no effect on response”. Also, the “food responding (lever presses, break point) in PR test” value in the series with out-bred Long Evans rats [3] (low responder subgroup (12 rats), 0.05 mg/kg S.C., 0.05 mg/kg) was “an increase in food responding; also recorded: Significant improvements”. In addition, the “food responding in PR test” value in the series on out-bred Long Evans rats [3] (low responder subgroup (12 rats), 0.1 mg/kg S.C.) is “did not produce an increase in food responding”. In the series with out-bred Long Evans rats [4] (24 rats, 0.05 mg/kg S.C., 75s SD, 5S ITI, 100 trials, vs. vehicle), the “pro-cognitive effect measured as % hit” value is recorded as “increased (p=0.05, t-test) pro-cognitive effect”. For the same molecule, in the series with out-bred Long Evans rats [4] (24 rats, 0.05 mg/kg S.C., standard conditions, 5 s ITI), the “procognitive effect measured as % correct” value is “slight non-significant increase”. Moreover, in the series with out-bred Long Evans rats [4] (setting [8]), the “performance: response speed, number of trials completed” value was “no effect on response speed, or number of trials completed” and the “premature or perseverative responses” value was “no effect on premature or perseverative responses”. Besides, the “detrimental effects on performance (motivation, motor control, attention, response speed)” value in the series on out-bred Long Evans rats [4] (PR and 5CSRTT studies together, 0.05-0.2 mg/kg (PR), 0.05-0.1 mg/kg S.C. (5CSRTT)) is given as “no detrimental effects”. Besides, the response speed result with out-bred Long Evans rats [4] (low attentive cohort, 0.05 mg/kg, vs. vehicle, 0.05 mg/kg) is recorded as “increased response speed; also recorded: Significant improvements”. Further, the “effect on accuracy (% correct and % hit)” value in the series with out-bred Long Evans rats [4] (low attentive subgroup (lowest tertile, N=8), 0.05 and 0.1 mg/kg, vs. vehicle) is “strongly evident; also recorded: Significant improvements”. Besides, the “PREM and PSV responses” value in the series with out-bred Long Evans rats [5] is given as “increase”. Moreover, the Cmax psilocin in series [6] is reported as 6+2 ng/ml. The “doses at which about half of the subjects experience some negative emotions or acute psychological distress” value in series [7] (human subjects) is not below 30 mg. In addition, the “doses at which the majority of side effects reported in the literature have occurred” value in series [7] (human subjects, equals 0.30-0.45 mg/kg) is 20 to 30 mg. Besides, in series [7] (human subjects, reported in the literature), the “threshold dose where mild hallucinogenic activity begins to occur in about half of the subjects” value was 10 mg. In series [7] (people, after taking the drug), the “onset of physical symptoms (dizziness, nausea, vomiting, headaches, increased pulse and blood pressure etc.)” value was 20 to 30 min. Besides, the “duration of physical symptoms (dizziness, nausea, vomiting, headaches, increased pulse and blood pressure etc.)” value in series [7] (people) is listed as “up to 6 hours”. Besides, in series [7] (people, higher doses, most find symptoms gone by 6 hours after ingestion), the “duration of psychedelic symptoms (distorted perception, mood changes)” value is “up to 12 hours”.
